One data set relates to LNCaP. Put plainly: Antiproliferative activity against human LNCaP cells assessed as reduction in cell viability incubated for 72 hrs by MTT assay. The data set is classed as functional, cell-based. On the technique in general: Formazan colour is commonly taken as a measure of viable cells.
Data set [1] is described as follows: Selectivity index, ratio of IC50 for human LNCaP cells to IC50 for human U87 cells. The data set is classed as functional.
The nature of data set [2]: AUC (0 to t) in BALB/c mouse at 25 mg/kg, ip administered as liposome encapsulated form and measured upto 24 hrs by LC-MS/MS analysis. The data set is classed as ADME, organism-based. As to conditions: in vivo.
For data set [3], the system named is U-87 MG. Put plainly: Antitumor activity against human U87 cells xenografted in BALB/c nude mouse assessed as tumor growth inhibition at 12.5 mg/kg/day administered as liposome encapsulated form for 15 days and measured every 3 days by vernier caliper. The data set is classed as functional, U-87MG ATCC. As to conditions: 360 h, time 15 day, read-out: TGI.
Data set [4] has as its system U-87 MG. The experiment in a line: Antitumor activity against human U87 cells xenografted in BALB/c nude mouse assessed as tumor growth inhibition at 50 mg/kg/day administered as liposome encapsulated form for 15 days and measured every 3 days by vernier caliper. Type of data set: functional, U-87MG ATCC. Conditions: 360 h, time 15 day, read-out: TGI. In general terms: A xenograft is tissue or cells of one species grown in another, often human tumour cells in immunodeficient mice.

Data set [5] addresses T1, Short transient receptor potential channel 7 (Homo sapiens, UniProt Q9HCX4).
T1 sequence (Q9HCX4 whole entry): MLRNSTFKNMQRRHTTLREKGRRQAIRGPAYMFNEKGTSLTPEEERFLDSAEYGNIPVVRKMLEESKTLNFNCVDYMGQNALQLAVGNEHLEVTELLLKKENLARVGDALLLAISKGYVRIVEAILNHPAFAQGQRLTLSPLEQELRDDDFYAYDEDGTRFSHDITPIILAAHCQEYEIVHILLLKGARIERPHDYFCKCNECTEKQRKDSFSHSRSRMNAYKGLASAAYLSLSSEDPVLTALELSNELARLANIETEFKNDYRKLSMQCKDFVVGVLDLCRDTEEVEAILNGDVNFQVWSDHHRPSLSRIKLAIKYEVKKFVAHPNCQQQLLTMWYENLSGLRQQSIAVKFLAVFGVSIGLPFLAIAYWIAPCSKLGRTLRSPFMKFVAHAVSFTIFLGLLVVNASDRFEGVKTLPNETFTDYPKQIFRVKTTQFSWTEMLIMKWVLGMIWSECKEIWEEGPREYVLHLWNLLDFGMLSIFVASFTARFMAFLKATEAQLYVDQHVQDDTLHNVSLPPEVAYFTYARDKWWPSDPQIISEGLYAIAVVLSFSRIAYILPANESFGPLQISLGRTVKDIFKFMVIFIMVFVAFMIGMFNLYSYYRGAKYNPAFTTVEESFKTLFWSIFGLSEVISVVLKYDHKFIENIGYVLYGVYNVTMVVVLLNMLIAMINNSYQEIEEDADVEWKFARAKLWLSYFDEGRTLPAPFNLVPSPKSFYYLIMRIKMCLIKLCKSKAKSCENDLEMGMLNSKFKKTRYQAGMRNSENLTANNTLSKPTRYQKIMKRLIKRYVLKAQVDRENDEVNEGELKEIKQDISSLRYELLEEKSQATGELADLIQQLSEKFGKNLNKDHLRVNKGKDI
Put plainly: Antagonist activity at human TRPC7 stably expressed in HEK293 cells inhibition of calcium influx by calcium fluorescence assay. The data set is classed as cell-based.

The target in data set [6] is T2, Short transient receptor potential channel 6 (Mus musculus) (UniProt Q61143).
T2 sequence (whole entry): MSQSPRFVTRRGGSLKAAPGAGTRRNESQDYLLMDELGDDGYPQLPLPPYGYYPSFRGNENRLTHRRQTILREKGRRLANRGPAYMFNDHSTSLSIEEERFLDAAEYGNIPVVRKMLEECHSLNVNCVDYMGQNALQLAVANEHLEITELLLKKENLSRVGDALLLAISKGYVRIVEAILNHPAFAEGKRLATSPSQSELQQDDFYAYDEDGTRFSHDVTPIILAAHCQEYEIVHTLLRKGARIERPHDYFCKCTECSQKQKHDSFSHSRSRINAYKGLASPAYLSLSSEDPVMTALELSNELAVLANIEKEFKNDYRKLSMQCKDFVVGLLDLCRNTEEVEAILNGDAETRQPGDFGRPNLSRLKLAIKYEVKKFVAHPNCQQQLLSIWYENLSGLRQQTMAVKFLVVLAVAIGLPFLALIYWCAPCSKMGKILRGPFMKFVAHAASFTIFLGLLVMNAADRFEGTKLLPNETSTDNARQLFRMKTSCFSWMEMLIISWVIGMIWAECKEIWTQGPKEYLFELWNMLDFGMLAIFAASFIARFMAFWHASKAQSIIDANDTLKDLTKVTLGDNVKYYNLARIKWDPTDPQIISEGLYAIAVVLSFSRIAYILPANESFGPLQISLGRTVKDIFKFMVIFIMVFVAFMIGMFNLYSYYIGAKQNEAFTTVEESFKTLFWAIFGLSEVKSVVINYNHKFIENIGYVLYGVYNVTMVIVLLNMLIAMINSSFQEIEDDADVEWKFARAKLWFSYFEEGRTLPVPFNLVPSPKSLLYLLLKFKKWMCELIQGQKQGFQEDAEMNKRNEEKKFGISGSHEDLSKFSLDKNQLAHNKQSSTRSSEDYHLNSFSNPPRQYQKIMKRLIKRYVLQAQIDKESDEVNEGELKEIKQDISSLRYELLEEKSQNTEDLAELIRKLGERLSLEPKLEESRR
Put plainly: Antagonist activity at mouse TRPC6 stably expressed in HEK293 cells assessed as inhibition of calcium influx at 10 uM by calcium fluorescence assay relative to control. The data set is classed as cell-based. Conditions: filed as antagonist.

Structures are written as SMILES.

The term IC50 denotes the concentration that inhibits the measured activity by half. Broadly, the AUC(0-t) is exposure summed from dosing to a finite time, without extrapolation to infinity. One may read the inhibition as how much of the control response was suppressed. For `NCCN(Cc1ccc2ccccc2c1)c1nc(C(=O)Nc2ccc(O)cc2)cs1`, the figures for the IC50 (with LNCaP; in data set [5]) were 8.3 µM and 3.4 µM, respectively. Further, the “Ratio IC50” value in data set [1] was 2. Further, the AUC(0-t) at 24 h in data set [2] is 6840 ng·h/mL. In addition, in the data set with U-87 MG [3], the inhibition in vivo at 12.5 mg/kg/day turned out to be 36.3%. In addition, the inhibition in vivo at 50 mg/kg/day in the data set on U-87 MG [4] turned out to be 49.4%. The inhibition in data set [6] is 100%.

(Values after ChEMBL document CHEMBL5518193, “Discovery of N-alkyl-N-benzyl thiazoles as novel TRPC antagonists for the treatment of glioblastoma multiforme” (Eur J Med Chem, 2024).)
